Patent US11203587B2, “Thyroid hormone receptor beta agonist compounds” (Terns, Inc., priority 2018, dated 2021)
pEC50: −log10 of the molar value.

Tests used:
THR beta-LBD = molecular target: T1, THR beta-LBD (Homo sapiens, UniProt P10828); assay: LanthaScreen TR-FRET Thyroid Receptor beta Coactivator Assay; format: biochemical; settings: for THRβ-Selectivity: THR beta over THR alpha, derived from T3-selectivity normalized data; for pEC50: TR-FRET coactivator assay, 2 hours incubation at room temperature, run in duplicate multiple times, average data, read-out: EC50 THRβ-FRET
T1 construct: THR alpha-LBD (0.4 nM final concentration) or THR beta-LBD (1.0 nM final concentration) was added; purchased ThermoFisher
T1 sequence (P10828 217-461 limits assumed): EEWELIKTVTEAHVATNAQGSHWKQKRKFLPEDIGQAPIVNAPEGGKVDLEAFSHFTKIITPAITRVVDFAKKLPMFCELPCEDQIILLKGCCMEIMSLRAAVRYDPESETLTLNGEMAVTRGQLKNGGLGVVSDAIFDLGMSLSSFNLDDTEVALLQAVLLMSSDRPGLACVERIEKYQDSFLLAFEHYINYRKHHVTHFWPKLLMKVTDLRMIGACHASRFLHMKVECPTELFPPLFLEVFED
Experimental: LanthaScreen™ TR-FRET Thyroid Receptor alpha Coactivator Assay kit (ThermoFisher) and LanthaScreen™ TR-FRET Thyroid Receptor beta Coactivator Assay kit (ThermoFisher) were used for agonist compound screening. […] Buffer C (ThermoFisher) was added to each well before the 4× mixture of fluorescein-SCR2-2 coactivator (200 nM final concentration), Terbium-labeled anti-GST antibody (2 nM final concentration), and THR alpha-LBD (0.4 nM final concentration) or THR beta-LBD (1.0 nM final concentration) was added.

THR alpha-LBD = molecular target: T2, THR alpha-LBD (Homo sapiens, UniProt P10827); assay: LanthaScreen TR-FRET Thyroid Receptor alpha Coactivator Assay; format: biochemical; settings: 2 hours incubation at room temperature, run in duplicate multiple times, average data, read-out: EC50 THRα-FRET
T2 construct: THR alpha-LBD (0.4 nM final concentration) or THR beta-LBD (1.0 nM final concentration) was added; purchased ThermoFisher
Experimental: Example B1: Time-Resolved Fluorescence Resonance Energy Transfer (TR-FRET) Assay for Thyroid Hormone Receptor Agonist Screening
LanthaScreen™ TR-FRET Thyroid Receptor alpha Coactivator Assay kit (ThermoFisher) and LanthaScreen™ TR-FRET Thyroid Receptor beta Coactivator Assay kit (ThermoFisher) were used for agonist compound screening. Compounds in DMSO were diluted using ECHO Liquid Handler (Labcyte Inc.) into 384 plates in 10-point 3-fold series in duplicate (5 micro M final top concentration). Buffer C (ThermoFisher) was added to each well before the 4× mixture of fluorescein-SCR2-2 coactivator (200 nM final concentration), Terbium-labeled anti-GST antibody (2 nM final concentration), and THR alpha-LBD (0.4 nM final concentration) or THR beta-LBD (1.0 nM final concentration) was added. After 2 hours incubation at room temperature in the dark, the TR-FRET signal was measured on an EnVision plate reader (PerkinElmer) with excitation at 340 nm and dual emission readout at 495 and 520 nm with the delay time of 100 micro second and the integration time of 200 micro second. The ratio of emission signal at 520 and at 495 was used to calculate EC50 using GraphPad Prism (GraphPad Software). […] Compounds' THR-beta selectivity values in Table 2 are derived from T3-selectivity normalized data.

T2 sequence (P10827 163-410 isoform P10827-2 limits assumed, other chains not shown): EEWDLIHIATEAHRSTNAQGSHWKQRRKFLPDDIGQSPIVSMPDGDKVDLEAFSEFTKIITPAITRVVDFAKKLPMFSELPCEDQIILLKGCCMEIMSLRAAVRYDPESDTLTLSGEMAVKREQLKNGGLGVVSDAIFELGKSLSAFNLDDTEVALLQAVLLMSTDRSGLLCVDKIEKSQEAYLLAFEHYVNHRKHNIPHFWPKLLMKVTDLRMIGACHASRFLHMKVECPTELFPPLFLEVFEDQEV

Row | Structure (SMILES) | THRβ-Selectivity (THR beta-LBD) | pEC50 (THR beta-LBD) | pEC50 (THR alpha-LBD) | THRβ-Selectivity (THR beta-LBD; listed as 33 P2)
1 | CC(=O)c1cc(Oc2c(Cl)cc(-c3n[nH]c(=O)[nH]c3=O)cc2Cl)nn(C)c1=O [Compound 35, 6-(4-((5-acetyl-1-methyl-6-oxo-1,6-dihydropyridazin-3-yl)oxy)-3,5-dichlorophenyl)-1,2,4-triazine-3,5(2H,4H)-dione] | 10.6 | 6.18 | 5.73 | 
2 | CCn1nc(-c2cc(Cl)c(Oc3cc(C(C)C)c(=O)[nH]n3)c(Cl)c2)c(=O)[nH]c1=O [Compound 19, 6-(3,5-dichloro-4-((5-isopropyl-6-oxo-1,6-dihydropyridazin-3-yl)oxy)phenyl)-2-ethyl-1,2,4-triazine-3,5(2H,4H)-dione] | 13.9 | 5.85 | < 5.30 | 
3 | CC(C)c1cc(Oc2c(Cl)cc(-c3nn(CC(F)(F)F)c(=O)[nH]c3=O)cc2Cl)n[nH]c1=O [Compound 21, 6-(3,5-dichloro-4-((5-isopropyl-6-oxo-1,6-dihydropyridazin-3-yl)oxy)phenyl)-2-(2,2,2-trifluoroethyl)-1,2,4-triazine-3,5(2H,4H)-dione] | >9.5 | 5.54 | < 5.30 | 
4 | Cc1c(-c2n[nH]c(=O)[nH]c2=O)cc(Cl)c(Oc2cc(C(C)C)c(=O)n(C)n2)c1Cl [Compound 5, 6-(3,5-dichloro-4-((5-isopropyl-1-methyl-6-oxo-1,6-dihydropyridazin-3-yl)oxy)-2-methylphenyl)-1,2,4-triazine-3,5(2H,4H)-dione] | 2.3 | 7.01 | 7.20 | 
5 | CC(C)c1cc(Oc2c(Cl)cc(-c3nn(CC(F)F)c(=O)[nH]c3=O)cc2Cl)n[nH]c1=O [Compound 23, 6-(3,5-dichloro-4-((5-isopropyl-6-oxo-1,6-dihydropyridazin-3-yl)oxy)phenyl)-2-(2,2-difluoroethyl)-1,2,4-triazine-3,5(2H,4H)-dione] | 9.2 | 5.86 | 5.49 | 
6 | CC[C@@H](C)c1cc(Oc2c(Cl)cc(-c3n[nH]c(=O)[nH]c3=O)cc2Cl)n[nH]c1=O (single isomer, unassigned) [Compound 33 P2] |  | 7.18 | 6.56 | 14.1
7 | CC(O)c1cc(Oc2c(Cl)cc(-c3n[nH]c(=O)[nH]c3=O)cc2Cl)n[nH]c1=O (stereo not drawn) [Compound 34, 6-(3,5-dichloro-4-((5-(1-hydroxyethyl)-6-oxo-1,6-dihydropyridazin-3-yl)oxy)phenyl)-1,2,4-triazine-3,5(2H,4H)-dione] | 8.6 | 6.40 | 5.94 | 
8 | CC(O)c1cc(Oc2c(Cl)cc(-c3nn(C)c(=O)[nH]c3=O)cc2Cl)n[nH]c1=O (stereo not drawn) [Compound 31, 6-(3,5-dichloro-4-((5-(1-hydroxyethyl)-6-oxo-1,6-dihydropyridazin-3-yl)oxy)phenyl)-2-methyl-1,2,4-triazine-3,5(2H,4H)-dione] | 14.4 | 6.01 | 5.57 | 
9 | CCC(C)c1cc(Oc2c(Cl)cc(-c3nn(C)c(=O)[nH]c3=O)cc2Cl)n[nH]c1=O (stereo not drawn) [Compound 32, 6-(4-((5-(sec-butyl)-6-oxo-1,6-dihydropyridazin-3-yl)oxy)-3,5-dichlorophenyl)-2-methyl-1,2,4-triazine-3,5(2H,4H)-dione] | 20.9 | 6.64 | 5.95 | 
10 | CC(C)c1cc(Oc2c(Cl)cc(-c3nn(C)c(=O)[nH]c3=O)cc2Cl)n[nH]c1=O [Compound 3, 6-(3,5-dichloro-4-((5-isopropyl-6-oxo-1,6-dihydropyridazin-3-yl)oxy)phenyl)-2-methyl-1,2,4-triazine-3,5(2H,4H)-dione] | 69.8 | 6.94 | 5.91 | 
